Reference: PMC9377102, “Toxicity and toxicokinetics of the ethanol extract of Zuojin formula” (BMC Complementary Medicine and Therapies, 2022)
Like-named read-outs stand apart in the source and are kept apart here.

What was measured:
[1] = Toxicokinetics test in the satellite groups (UPLC-MS/MS of rat plasma); type: in vivo
Method: SD rats (5 ~ 6 weeks, 3/group/sex) were randomly allocated to three treatment groups and given the same dosage as those in the repeated toxicity experiment for 28 days. […] Carbamazepine was chosen as the internal standard (IS). The blood samples were centrifuged to obtain plasma. Then, 300 μL of acetonitrile containing 40 ng of IS was added to 100 μL of plasma. After vortexing for 1 min, the mixture was centrifuged at 17,000 rpm for 15 min at 4 °C. The supernatant of each sample was injected into a UPLC–MS/MS system for determination. The injection volume was 1 μL. UPLC–MS analysis was performed on a Thermo Fisher Scientific Ultimate 3000 UPLC system (San Jose, USA) and an API 4000 QTRAP mass spectrometer (Foster City, USA) equipped with an ESI source. The mobile phase consisted of 2 solvents: (A) water containing 0.1% formic acid and (B) 100% acetonitrile. For MS, multiple reaction monitoring (MRM) in positive ion mode was used as the scanning mode for the main components and IS in the plasma samples. The dwell time (DT), collision energy (CE), quadrupole 1 pre-rod bias (Q1) and quadrupole 3 pre-rod bias (Q3) are listed in Table 3.

[2] = cited from earlier work
[3] = tested on: diarrhoea-predominant irritable bowel syndrome; settings: rats, 50 and 100 mg/kg for 14 days; cited from earlier work
[4] = tested on: thyroid hormone-induced diarrhoea; settings: rats, 60 mg/kg oral gavage for 7 days; cited from earlier work
[5] = tested on: CD4+ Th, CD4+CXCR5+ Tfh cells and Foxp3+ Tregs; settings: mice, intraperitoneal injection 1 mg/kg; cited from earlier work
[6] = tested on: spleen; settings: mice, intraperitoneal injection 10 mg/kg; cited from earlier work
[7] = tested on: CYP3A4, CYP1A2 and CYP2D6; settings: cited from earlier work
[8] = tested on: CYP3A4, CYP1A2 and CYP2D6; settings: cited from earlier work; remark: listed apart in the source
[9] = female SD rats, pure berberine 90 mg/kg orally, previous study, reference not given
[10] = male rats, pure berberine 90 mg/kg
[11] = female rats, Day 1, high dose TAZF 3.7 g/kg by gavage
[12] = female rats, Day 1, highest dose (berberine 72.08, epiberberine 7.42, coptisine 7.42, palmatine 18.26, jatrorrhizine 2.80, columbamine 5.93 mg/kg)
[13] = female rats, Day 1, low dose TAZF 0.4 g/kg by gavage
[14] = female rats, Day 1, lowest dose (berberine 8.01, epiberberine 0.82, coptisine 1.38, palmatine 2.03, jatrorrhizine 0.31, columbamine 0.66 mg/kg)
[15] = female rats, Day 1, middle dose (berberine 24.03, epiberberine 2.47, coptisine 2.47, palmatine 6.09, jatrorrhizine 0.93, columbamine 1.98 mg/kg)
[16] = female rats, Day 28, high dose TAZF 3.7 g/kg by gavage
[17] = female rats, Day 28, highest dose (berberine 72.08, epiberberine 7.42, coptisine 7.42, palmatine 18.26, jatrorrhizine 2.80, columbamine 5.93 mg/kg)
[18] = female rats, Day 28, low dose TAZF 0.4 g/kg by gavage
[19] = female rats, Day 28, lowest dose (berberine 8.01, epiberberine 0.82, coptisine 1.38, palmatine 2.03, jatrorrhizine 0.31, columbamine 0.66 mg/kg)
[20] = female rats, Day 28, middle dose (berberine 24.03, epiberberine 2.47, coptisine 2.47, palmatine 6.09, jatrorrhizine 0.93, columbamine 1.98 mg/kg)
[21] = male rats, Day 1, high dose TAZF 3.7 g/kg by gavage
[22] = male rats, Day 1, highest dose (berberine 72.08, epiberberine 7.42, coptisine 7.42, palmatine 18.26, jatrorrhizine 2.80, columbamine 5.93 mg/kg)
[23] = male rats, Day 1, low dose TAZF 0.4 g/kg by gavage
[24] = male rats, Day 1, lowest dose (berberine 8.01, epiberberine 0.82, coptisine 1.38, palmatine 2.03, jatrorrhizine 0.31, columbamine 0.66 mg/kg)
[25] = male rats, Day 1, middle dose (berberine 24.03, epiberberine 2.47, coptisine 2.47, palmatine 6.09, jatrorrhizine 0.93, columbamine 1.98 mg/kg)
[26] = male rats, Day 28, high dose TAZF 3.7 g/kg by gavage
[27] = male rats, Day 28, highest dose (berberine 72.08, epiberberine 7.42, coptisine 7.42, palmatine 18.26, jatrorrhizine 2.80, columbamine 5.93 mg/kg)
[28] = male rats, Day 28, low dose TAZF 0.4 g/kg by gavage
[29] = male rats, Day 28, lowest dose (berberine 8.01, epiberberine 0.82, coptisine 1.38, palmatine 2.03, jatrorrhizine 0.31, columbamine 0.66 mg/kg)
[30] = male rats, Day 28, middle dose (berberine 24.03, epiberberine 2.47, coptisine 2.47, palmatine 6.09, jatrorrhizine 0.93, columbamine 1.98 mg/kg)

COc1ccc2cc3[n+](cc2c1OC)CCc1cc2c(cc1-3)OCO2 [berberine]
AUC(0-t) ([1]; female, SD, rat, plasma, po, 0.4 g/kg, female rats, Day 1, low dose TAZF 0.4 g/kg by gavage, read-out: AUC0-t): 122 ± 17.1 ng·h/mL | Cmax ([1]; female, SD, rat, plasma, po, 0.4 g/kg, female rats, Day 1, low dose TAZF 0.4 g/kg by gavage, read-out: Cmax): 149 ± 73 ng/mL | AUC(0-t) ([1]; female, SD, rat, plasma, po, 0.4 g/kg, female rats, Day 28, low dose TAZF 0.4 g/kg by gavage, read-out: AUC0-t): 838 ± 949 ng·h/mL | Cmax ([1]; female, SD, rat, plasma, po, 0.4 g/kg, female rats, Day 28, low dose TAZF 0.4 g/kg by gavage, read-out: Cmax): 324 ± 432 ng/mL | AUC(0-t) ([1]; female, SD, rat, plasma, po, 3.7 g/kg, female rats, Day 1, high dose TAZF 3.7 g/kg by gavage, read-out: AUC0-t): 306 ± 94.7 ng·h/mL | Cmax ([1]; female, SD, rat, plasma, po, 3.7 g/kg, female rats, Day 1, high dose TAZF 3.7 g/kg by gavage, read-out: Cmax): 219 ± 118 ng/mL | AUC(0-t) ([1]; female, SD, rat, plasma, po, 3.7 g/kg, female rats, Day 28, high dose TAZF 3.7 g/kg by gavage, read-out: AUC0-t): 153 ± 53.7 ng·h/mL | Cmax ([1]; female, SD, rat, plasma, po, 3.7 g/kg, female rats, Day 28, high dose TAZF 3.7 g/kg by gavage, read-out: Cmax): 23.8 ± 6.25 ng/mL | AUC(0-t) ([1]; male, SD, rat, plasma, po, 0.4 g/kg, male rats, Day 1, low dose TAZF 0.4 g/kg by gavage, read-out: AUC0-t): 1220 ± 389 ng·h/mL | Cmax ([1]; male, SD, rat, plasma, po, 0.4 g/kg, male rats, Day 1, low dose TAZF 0.4 g/kg by gavage, read-out: Cmax): 222 ± 180 ng/mL | AUC(0-t) ([1]; male, SD, rat, plasma, po, 0.4 g/kg, male rats, Day 28, low dose TAZF 0.4 g/kg by gavage, read-out: AUC0-t): 699 ± 644 ng·h/mL | Cmax ([1]; male, SD, rat, plasma, po, 0.4 g/kg, male rats, Day 28, low dose TAZF 0.4 g/kg by gavage, read-out: Cmax): 460 ± 276 ng/mL | AUC(0-t) ([1]; male, SD, rat, plasma, po, 3.7 g/kg, male rats, Day 1, high dose TAZF 3.7 g/kg by gavage, read-out: AUC0-t): 1860 ± 425 ng·h/mL | Cmax ([1]; male, SD, rat, plasma, po, 3.7 g/kg, male rats, Day 1, high dose TAZF 3.7 g/kg by gavage, read-out: Cmax): 219 ± 24.4 ng/mL | AUC(0-t) ([1]; male, SD, rat, plasma, po, 3.7 g/kg, male rats, Day 28, high dose TAZF 3.7 g/kg by gavage, read-out: AUC0-t): 608 ± 203 ng·h/mL | Cmax ([1]; male, SD, rat, plasma, po, 3.7 g/kg, male rats, Day 28, high dose TAZF 3.7 g/kg by gavage, read-out: Cmax): 136 ± 77.9 ng/mL | Systemic exposure after 28 days of administration vs single administration ([1]; rats, oral TAZF): much lower | AUC0–36 [2, 9]: 88.8 ng·h/mL | Cmax [2, 9]: 29.2 ng/mL | AUC0–60 [2, 10]: 305.8 ng·h/mL | Cmax [2, 10]: 28.2 ng/mL | Effect on diarrhoea-predominant irritable bowel syndrome [3]: improve diarrhoea-predominant irritable bowel syndrome | Effect on thyroid hormone-induced diarrhoea [4]: effect was also observed | T cell subset levels [5]: reduced levels of CD^4+ Th and CD^4+CXCR^5+ Tfh cells and an increased level of Foxp^3+ Tregs | Immunosuppressive effect and spleen weight [6]: strong immunosuppressive effect and reduced spleen weight | Metabolism by CYP3A4, CYP1A2 and CYP2D6 [7]: metabolized | Inhibition of CYP3A4, CYP1A2 and CYP2D6 [8]: inhibited

c1c2c(cc3c1OCO3)-c1cc3ccc4c(c3c[n+]1CC2)OCO4 [coptisine]
Cmax ([1]; male, SD, rat, in vivo, po, 0.4 g/kg): 45.49 ± 57.63 ng/mL | Cmax ([1]; male, SD, rat, in vivo, po, 0.4 g/kg, Cmax): 32.4 ± 33 ng/mL | Cmax ([1]; male, SD, rat, in vivo, po, 3.7 g/kg): 20.05 ± 13.57 ng/mL | Cmax ([1]; male, SD, rat, in vivo, po, 3.7 g/kg, Cmax): 32.3 ± 9.08 ng/mL | Systemic exposure after 28 days of administration vs single administration ([1]; rat, in vivo, po): much lower

COc1cc2c(cc1OC)-c1cc3ccc4c(c3c[n+]1CC2)OCO4 [epiberberine]
28-day AUC relative to the first day ([1]; rat, in vivo): 1 to 2 times | Inhibition of CYP3A4, CYP1A2 and CYP2D6 [8]: inhibited

COc1cc2c(cc1OC)-c1cc3ccc(OC)c(OC)c3c[n+]1CC2 [palmatine]
AUC(0-t) [1, 11]: 38.00 ± 16.92 ng·h/mL | Cmax [1, 11]: 46.60 ± 27.16 ng/mL | Cmax mean [1, 12]: 46.60 ng/mL | T1/2 mean [1, 12]: 5.18 h | Tmax mean [1, 12]: 0.50 h | AUC(0-t) [1, 13]: 18.08 ± 4.07 ng·h/mL | Cmax [1, 13]: 27.93 ± 13.97 ng/mL | Cmax mean [1, 14]: 27.93 ng/mL | T1/2 mean [1, 14]: 5.96 h | Tmax mean [1, 14]: 0.42 h | AUC0-t mean [1, 15]: 90.31 ng·h/mL | Cmax mean [1, 15]: 77.60 ng/mL | T1/2 mean [1, 15]: 3.29 h | Tmax mean [1, 15]: 0.83 h | AUC(0-t) [1, 16]: 24.07 ± 12.21 ng·h/mL | Cmax [1, 16]: 5.67 ± 2.58 ng/mL | Cmax mean [1, 17]: 5.67 ng/mL | T1/2 mean [1, 17]: 3.98 h | Tmax mean [1, 17]: 0.83 h | AUC(0-t) [1, 18]: 116.47 ± 138.20 ng·h/mL | Cmax [1, 18]: 55.94 ± 72.88 ng/mL | Cmax mean [1, 19]: 55.94 ng/mL | T1/2 mean [1, 19]: 80.32 h | Tmax mean [1, 19]: 0.42 h | AUC0-t mean [1, 20]: 14.65 ng·h/mL | Cmax mean [1, 20]: 4.16 ng/mL | T1/2 mean [1, 20]: 9.33 h | Tmax mean [1, 20]: 1.33 h | AUC(0-t) [1, 21]: 342.51 ± 66.62 ng·h/mL | Cmax [1, 21]: 51.33 ± 17.52 ng/mL | Cmax mean [1, 22]: 51.33 ng/mL | T1/2 mean [1, 22]: 10.38 h | Tmax mean [1, 22]: 3.33 h | AUC(0-t) [1, 23]: 236.12 ± 103.55 ng·h/mL | Cmax [1, 23]: 52.47 ± 52.73 ng/mL | Cmax mean [1, 24]: 52.47 ng/mL | T1/2 mean [1, 24]: 12.88 h | Tmax mean [1, 24]: 3.33 h | AUC0-t mean [1, 25]: 318.68 ng·h/mL | Cmax mean [1, 25]: 71.53 ng/mL | T1/2 mean [1, 25]: 26.57 h | Tmax mean [1, 25]: 0.67 h | AUC(0-t) [1, 26]: 110.18 ± 34.30 ng·h/mL | Cmax [1, 26]: 32.93 ± 24.17 ng/mL | Cmax mean [1, 27]: 32.93 ng/mL | T1/2 mean [1, 27]: 11.01 h | Tmax mean [1, 27]: 4.08 h | AUC(0-t) [1, 28]: 36.98 ± 18.55 ng·h/mL | Cmax [1, 28]: 67.20 ± 74.82 ng/mL | Cmax mean [1, 29]: 67.20 ng/mL | T1/2 mean [1, 29]: 12.22 h | Tmax mean [1, 29]: 0.83 h | AUC0-t mean [1, 30]: 102.21 ng·h/mL | Cmax mean [1, 30]: 22.63 ng/mL | T1/2 mean [1, 30]: 2.90 h | Tmax mean [1, 30]: 12.00 h | Systemic exposure after 28 days of administration vs single administration ([1]; rats, oral TAZF): much lower | Metabolism by CYP3A4, CYP1A2 and CYP2D6 [7]: metabolized

O=c1c2ccccc2nc2n1CCc1c-2[nH]c2ccccc12 [rutaecarpine]
Level in plasma ([1]; both, SD, rat, in vivo, po): < 0.5 ng/mL
